Results published in PMC5316400, “Validation of precision-cut liver slices to study drug-induced cholestasis: a transcriptomics approach” (Archives of Toxicology, 2016).

Legend:
[1] = test system: Genes involved in unfolded protein response (UPR); test: Microarray gene expression in human PCLS exposed to cholestatic drugs: unfolded protein response genes; type: cell-based; conditions: 30 μM; 24 h; 60 μM bile acid mix
Method: (§1) Precision-cut liver slices of 5 mm diameter and 250 μm thickness were prepared (de Graaf et al. [2010]). At this thickness, full penetration of substrates has been shown. PCLS were made using the Krumdieck tissue slicer (Alabama R&D, Munford, AL, USA) in ice-cold Krebs buffer at pH 7.42, enriched with glucose to a final concentration of 25 mM, saturated with carbogen (95 % O2/5 % CO2). Immediately after the slices were made, they were placed in ice-cold University of Wisconsin organ preservation solution (UW, Dupont Critical Care, Waukegan, IL, USA) and stored on ice until the beginning of the experiment. Slices were pre-incubated individually in 12-well plates in 1.3 ml of Williams Medium E with glutamax-1 (Gibco, Invitrogen, Paisley, Scotland) supplemented with 25 mM D-glucose and 50 μg/ml gentamycin (Gibco, Invitrogen, Paisley, Scotland). In the incubator (Sanyo CO2/O2 Incubator, PANASONIC, Secaucus, NJ, USA), the plates were gently shaken (90 times/min) for 1 h under 80 % O2 and 5 % CO2 atmosphere at 37 °C. This pre-incubation allows the slices to restore their ATP levels. […] The plates were incubated under the same conditions for 24 h. All incubation conditions were carried out in triplicate. Each experiment was performed in slices of 6 different human livers (Table 1). Slices were harvested for ATP assay in 100 mM Tris buffer with 2 mM EDTA and for RNA isolation in RNAlater. The bile acid mix was added to the medium in order to create an environment similar to the physiological concentration in the portal vein. The composition of the serum bile acids was according to Scherer et al. ([2009]). Pilot experiments were performed to find out the non-toxic concentration of the bile acid mix.
(§2) Maxwell® 16 LEV Total RNA purification kit (Promega, The Netherlands) with Maxwell® 16 LEV Instrument was used to isolate RNA from the samples. Immediately after isolation, the RNA quality was assessed by measuring the 260/280 and 260/230 ratios, and the concentration was measured with the ND-1000 spectrophotometer (Fisher Scientific, Landsmeer, The Netherlands). The quality (RIN value) and quantity of the RNA were determined by high-throughput Caliper GX LabChip RNA kit (Caliper).
(§3) Ambion Illumina Total Prep RNA kit was used to transcribe 300 ng RNA to cRNA according to the manufacturer’s instructions. A total of 750 ng of cRNA was hybridized at 58 °C for 16 h to the Illumina HumanHT-12 v4 Expression BeadChips. BeadChips were scanned using Iscan software, and IDAT files were generated (Illumina, San Diego, CA, USA).
(§4) GenomeStudio software (Illumina) was used to read the IDAT files and generate raw expression values. The ArrayAnalysis web service (www.arrayanalysis.org/) was used for further preprocessing the data, which uses lumi R package (Eijssen et al. [2013]). Raw gene expression data were background-corrected (bgAdjust), variance-stabilized (VST) and normalized by quantile normalization. After normalization, the data were corrected for batch differences owing to RNA isolation and hybridization using the ComBat method implemented in the swamp package in R (Lauss et al. [2013]). Differentially expressed genes in slices exposed to the cholestatic drugs in the presence of bile acids versus the slices exposed to vehicle (DMSO) in the presence of bile acids were identified using the unpaired moderated t test in the limma package (Ritchie et al. [2015]). Genes that are regulated with a criterion of fold change of 1.5 (≤ or ≥1.5), and FDR-corrected p value ≤0.05 (Benjamini and Hochberg method) were chosen for pathway analysis. To compare our data with the scarcely available human in vivo data, human in vivo late-stage cholestasis data were downloaded from the Gene Expression Omnibus database (GSE46960).

[2] = test system: human precision-cut liver slices (PCLS); test: Transcriptomics of human PCLS: differentially regulated genes; type: cell-based; conditions: fold change of 1.5 and adjusted p value 0.05, 24 h, 60 μM bile acid mix
Method: as §1, §2, §3, §4

[3] = adult patients, therapeutic dose, systemic blood; no reference given; cited from earlier work
[4] = C max in systemic blood of adult patients after a therapeutic dose; conditions: highest toxic concentration tested in human PCLS vs C max in adult patients
[5] = test system: Genes involved in the FXR pathway; test: Microarray gene expression in human PCLS exposed to cholestatic drugs: FXR pathway genes; conditions: 30 μM; 24 h; 60 μM bile acid mix
Method: as §1, §2, §3, §4

[6] = test system: Genes involved in hepatic cholestasis pathway; test: Microarray gene expression in human PCLS exposed to cholestatic drugs: hepatic cholestasis pathway genes; conditions: 30 μM; 24 h; 60 μM bile acid mix
Method: as §1, §2, §3, §4

With `CN(C)CCCN1c2ccccc2Sc2ccc(Cl)cc21` [CP, chlorpromazine] as the compound, how does the ATF4 fold change [1] read?
The ATF4 fold change was 1.5.

What about the “DDIT3 (CHOP) fold change” value [1] of the same compound?
The value was 1.2.

And the DNAJB9 fold change [1]?
The DNAJB9 fold change was 1.0.

And the ERN1 fold change [1]?
The ERN1 fold change was 1.0.

What about the HSPA9 fold change [1] of the same compound?
The HSPA9 fold change was 1.1.

And the HSPH1 fold change [1]?
The HSPH1 fold change was 1.0.

And the INSIG1 fold change [1]?
The INSIG1 fold change was 1.3.

And the NFE2L2 fold change [1]?
Its NFE2L2 fold change is 1.1.

And the SYVN1 fold change [1]?
The SYVN1 fold change was 1.0.

And the “Number of regulated genes” value ([2]; 10 μM)?
Its value is 1.

What about the “Number of regulated genes” value ([2]; 20 μM) of the same compound?
Its value is 2.

And the “Number of regulated genes” value ([2]; 30 μM)?
The value was 61.

What about the Cmax [3] of the same compound?
The Cmax was 420 nM.

What about the “toxic concentration used in PCLS study relative to C max” value [4] of the same compound?
The value was ~ 70 × C max.

And the ABCB4 fold change [5]?
Its ABCB4 fold change is −2.0.

And the ABCB11 fold change [5]?
Its ABCB11 fold change is −1.7.

And the ABCG5 fold change [5]?
Its ABCG5 fold change is −1.4.

And the ABCG8 fold change [5]?
Its ABCG8 fold change is −1.7.

And the APOC2 fold change [5]?
Its APOC2 fold change is −1.4.

And the APOC4 fold change [5]?
Its APOC4 fold change is −1.8.

And the APOF fold change [5]?
Its APOF fold change is −1.9.

And the BAAT fold change [5]?
Its BAAT fold change is −1.5.

What about the C3 fold change [5] of the same compound?
The C3 fold change was −1.5.

What about the CYP8B1 fold change [5] of the same compound?
Its CYP8B1 fold change is −2.3.

And the CYP27A1 fold change [5]?
Its CYP27A1 fold change is −1.1.

What about the FASN fold change [5] of the same compound?
The FASN fold change was −1.4.

What about the FBP1 fold change [5] of the same compound?
The FBP1 fold change was −2.0.

What about the FETUB fold change [5] of the same compound?
Its FETUB fold change is −1.8.

And the FGA fold change [5]?
The FGA fold change was −1.7.

And the ITIH4 fold change [5]?
The ITIH4 fold change was −1.4.

What about the KNG1 fold change [5] of the same compound?
Its KNG1 fold change is −1.8.

What about the “NR0B2 (SHP) fold change” value [5] of the same compound?
The value was −1.3.

What about the “NR1H3 (LXR) fold change” value [5] of the same compound?
Its value is −1.3.

What about the “NR1H4 (FXR) fold change” value [5] of the same compound?
The value was −1.4.

And the PON1 fold change [5]?
Its PON1 fold change is −1.9.

And the RXRA fold change [5]?
Its RXRA fold change is −1.1.

What about the SCARB1 fold change [5] of the same compound?
Its SCARB1 fold change is −1.6.

And the SDC1 fold change [5]?
The SDC1 fold change was −1.4.

And the SERPINF2 fold change [5]?
The SERPINF2 fold change was −1.5.

And the SLC22A7 fold change [5]?
The SLC22A7 fold change was −2.6.

And the SLC51B fold change [5]?
The SLC51B fold change was −1.9.

And the SULT2A1 fold change [5]?
Its SULT2A1 fold change is −1.9.

And the ABCB4 fold change [6]?
Its ABCB4 fold change is −2.0.

And the ABCB11 fold change [6]?
Its ABCB11 fold change is −1.4.

What about the ABCC3 fold change [6] of the same compound?
The ABCC3 fold change was −1.1.

And the ABCG5 fold change [6]?
The ABCG5 fold change was −1.4.

What about the ABCG8 fold change [6] of the same compound?
The ABCG8 fold change was −1.7.

And the CYP8B1 fold change [6]?
Its CYP8B1 fold change is −2.3.

And the CYP27A1 fold change [6]?
The CYP27A1 fold change was −1.3.

What about the GCGR fold change [6] of the same compound?
The GCGR fold change was −1.7.

And the IL1B fold change [6]?
The IL1B fold change was −1.1.

What about the IL1RL1 fold change [6] of the same compound?
The IL1RL1 fold change was 1.4.

What about the IL1RN fold change [6] of the same compound?
Its IL1RN fold change is 1.3.

What about the IRAK2 fold change [6] of the same compound?
Its IRAK2 fold change is 1.2.

What about the JUN fold change [6] of the same compound?
The JUN fold change was 1.5.

And the NR0B2 fold change [6]?
Its NR0B2 fold change is −1.6.

And the NR1H3 fold change [6]?
Its NR1H3 fold change is −1.2.

And the NR1H4 fold change [6]?
Its NR1H4 fold change is −1.2.

And the PPRC1 fold change [6]?
Its PPRC1 fold change is 1.2.

What about the RXRA fold change [6] of the same compound?
Its RXRA fold change is −1.3.

And the SLC22A7 fold change [6]?
Its SLC22A7 fold change is −2.6.

What about the TNFRSF1B fold change [6] of the same compound?
Its TNFRSF1B fold change is 1.0.

For `C#C[C@]1(O)CC[C@H]2[C@@H]3CCc4cc(O)ccc4[C@H]3CC[C@@]21C` [EE, ethinyl estradiol], which “Number of regulated genes” value ([2]; 25 μM) is on record?
The value was 0.

And the “Number of regulated genes” value ([2]; 50 μM)?
Its value is 5.

What about the “Number of regulated genes” value ([2]; 75 μM) of the same compound?
The value was 63.

And the Cmax [3]?
Its Cmax is 8.2 nM.
